What all share (format): in vitro ADME
Data set [1] deals with MDR1. In words: MDCK-MDR1 permeability assay. The conditions noted are these: dog, 3 μM test compound; for efflux ratio at 2 h, 3 μM: Papp (B→A) divided by Papp (A→B), read-out: Efflux ratio (ER); for Papp A→B at 2 h, 3 μM: apical to basolateral, 2 hours at 37 degrees C. The procedure: The bidirectional permeability (Apical to Basal and Basal to Apical directions) of test compounds in MDCK-MDR1 cells were evaluated using MDCK-MDR1 cells seeded in Solvo PreadyPort™ MDCK 96-well plate. Once the plate was received from ReadyCell (Barcelona, Spain), it was treated as per PreadyPort™ user's manual.
For the Apical to Basolateral (A→B) permeability, 80 μL of test compound (3 μM) co-dosed with LY (Lucifer Yellow) (100 μM) in HBSS (Hank's Balanced Salt Solution) assay buffer was added to the donor side (A) while 250 μL of HBSS buffer was added to the receiver side (B). For the Basolateral to Apical (B→A) permeability, 255 μL of test compound (3 μM) in HBSS assay buffer was added to the donor side (B) while 75 μL of HBSS buffer containing LY (100 μM) was added to the receiver side (A).
The plate was placed in an incubator set at 37 degrees C. After 10 minutes of pre-warming, 5 μL aliquot was taken from donor compartment and set aside as the dosing solution. The MDCK-MDR1 incubation plate was placed back into the incubator for 2 hours of incubation at 37 degrees C. After 2 hours of incubation, 25 μL and 5 μL aliquots were removed from the receiver and donor sides, respectively. To the 5 μL aliquots taken from the donor sides (before and after a 2-hour incubation) were diluted with 20 μL of the HBSS buffer. All samples were mixed with 150 μL with acetonitrile containing internal standard (IS) and 200 μL water, and analyzed by LC-MS/MS.
The apparent permeability (Papp) was calculated using the following formula: Papp=dQ/dt×1/A×C0 where: • dQ/dt: amount of translocated material over incubation time (nmol/s) • A: area of insert (0.14 cm^2 for PreadyPort™ MDR1-96) • C0: initial concentration of product applied in apical (A→B) or basal (B→A) compartment (nmol/mL).
The efflux ratio (ER) was measured by dividing the Papp (basolateral to apical direction) by Papp (apical to basolateral direction). It is a general measure of the involvement of active processes. An ER >2 is considered positive for active transport.
The data reported in Table 3 were obtained according to the MDCK-MDR1 permeability assay described above.

Data set [2] has as its system human hepatocytes. In words: Hepatocytes stability assay (human hepatocytes). The conditions noted are these: hepatic clearance divided by liver blood flow, fu assumed unity. The procedure: (§1) In vitro metabolic stability was assessed using cryopreserved hepatocytes from male Sprague Dawley rats and a pool of 50 mixed gender humans (BioIVT, Baltimore, MD). The incubation mixtures were prepared by mixing 250 μL of pre-warmed KHB (Krebs-Henseleit buffer) containing 2×10^6 cell/mL of hepatocytes with 250 μL of pre-warmed KHB buffer containing 2 μM of test compounds in a 48-well plate, giving a final concentration of 1 μM test compound (0.1% DMSO) and 1×10^6 cell/mL of hepatocytes. The reaction mixture was incubated at 37 degrees C. A 50 μL aliquot of incubation mixture was taken at time points (0, 15, 30, 60, 120 and 240 minutes) and transferred into a 96-well plate containing 300 μL ice-cold acetonitrile (containing 30 ng/mL of labetalol and 10 ng/mL of Naltrexone-d3 as internal standards) and immediately placed in ice to terminate the reaction. Samples were centrifuged, and supernatants were transferred into 96-well plates for liquid chromatography with tandem mass spectrometry (LC-MS/MS) analysis to monitor the depletion of the test compound. Data was calculated as percent remaining by assuming zero-minute time point peak area ratio (analyte/IS) as 100% and dividing remaining time point peak area ratios by zero-minute time point peak area ratio. Data were fitted to a first-order decay model to determine half-life. From a plot of log (ln) peak area against time, the slope of the line was determined. Subsequently, half-life (T1/2) and intrinsic clearance (CLint) were calculated using the equations below: • Elimination rate constant (k)=(−slope) • Half-life (T1/2) min=0.693/k • Intrinsic Clearance (CLint) (mL/min/million cells)=(V×0.693)/T1/2 • V=incubation volume mL/number of cells The in vitro T1/2 was converted to in vitro intrinsic clearance (CLint,hep) in units of mL/min/kg using the formula shown below: The in vitro intrinsic clearance (CLint,hep) was scaled to in vivo hepatic clearance (CL,hep) using the following equation which was adapted from a well-stirred model. [formula] where Q is the liver blood flow and fu is the fraction unbound (assumed to be unity in this case). All parameters used in the calculation are shown below (Table 4). The extraction ratio (ER) was calculated by dividing the hepatic clearance of a compound to the liver blood flow. The data reported in Table 5 were obtained according to the human hepatocytes stability assay described above.

Data set [3] can be described thus: Hepatocytes stability assay (human hepatocytes). To be noted: both sexes, cryopreserved hepatocytes, 1 μM test compound, 1×10^6 cell/mL, read-out: CLint (μL/min/million cells). The procedure: as §1

Consider 24 compounds from patent US12441710B2, “Substituted piperidino compounds and related methods of treatment” (Alkermes, Inc., priority 2020, dated 2025).

One may read the Papp A→B as the apparent permeability from the apical to the basolateral side of a cell layer.

On to `CS(=O)(=O)N[C@H]1CCN(c2ccccn2)CC1COC1CCC(c2cccnc2)CC1` (stereo partly drawn) [Compound 3], for which, in data set [1], the efflux ratio at 2 h, 3 μM was found to be 24 and the Papp A→B at 2 h, 3 μM came to 1.7 ×10⁻⁶ cm/s. Besides, in data set [2], the “Extraction Ratio (ER)” value is 0.88. Moreover, in data set [3], the hepatocyte CLint at 1 μM turned out to be 50 µL/min/1e6 cells.
In the same order, the values of `CS(=O)(=O)N[C@H]1CCN(c2ccccn2)CC1COC1CCC(c2ccncc2)CC1` (stereo partly drawn) [Compound 4] are 14, 1.2 ×10⁻⁶ cm/s, 0.89 and 57 µL/min/1e6 cells.
Turning to `CS(=O)(=O)N[C@H]1CCN(c2ccccn2)CC1COC1CCC(c2ccccc2F)CC1` (stereo partly drawn) [Compound 5], in data set [1], the efflux ratio at 2 h, 3 μM is more than 7.2 and the Papp A→B at 2 h, 3 μM was less than 0.9 ×10⁻⁶ cm/s. The “Extraction Ratio (ER)” value in data set [2] was 0.88. Moreover, in data set [3], the hepatocyte CLint at 1 μM was determined as 49 µL/min/1e6 cells.
The corresponding values for `CS(=O)(=O)N[C@H]1CCN(c2ccccn2)CC1COC1CCC(c2ccc(F)cc2)CC1` (stereo partly drawn) [Compound 7] are more than 4.3, less than 1.2 ×10⁻⁶ cm/s, 0.85 and 39 µL/min/1e6 cells.
In the case of `CS(=O)(=O)N[C@H]1CCN(c2ccccn2)CC1COC1CCC(c2ccncn2)CC1` (stereo partly drawn) [Compound 8], in data set [1], the efflux ratio at 2 h, 3 μM was determined as 15 and the Papp A→B at 2 h, 3 μM was found to be 1.8 ×10⁻⁶ cm/s. Further, the “Extraction Ratio (ER)” value in data set [2] was 0.82. Besides, the hepatocyte CLint at 1 μM in data set [3] was 30 µL/min/1e6 cells.
The corresponding values for `CS(=O)(=O)N[C@H]1CCN(c2ccccn2)CC1COC1CCC(c2cnccn2)CC1` (stereo partly drawn) [Compound 9] are 25, 0.97 ×10⁻⁶ cm/s, 0.87 and 45 µL/min/1e6 cells.
Take `CS(=O)(=O)N[C@H]1CCN(c2ccccn2)CC1COC1CCC(c2ccccc2)CC1` (stereo partly drawn) [Compound 10]: in data set [1], the efflux ratio at 2 h, 3 μM came out at 1.4 and the Papp A→B at 2 h, 3 μM was found to be 5.6 ×10⁻⁶ cm/s. Also, in data set [2], the “Extraction Ratio (ER)” value stood at 0.92. For the same compound, the hepatocyte CLint at 1 μM in data set [3] was determined as 73 µL/min/1e6 cells.
The corresponding values for `CS(=O)(=O)N[C@H]1CCN(c2ccccn2)CC1COC1CCC(c2ncccn2)CC1` (stereo partly drawn) [Compound 11] are 11, 1.6 ×10⁻⁶ cm/s, 0.76 and 21 µL/min/1e6 cells.
The corresponding values for `CS(=O)(=O)N[C@H]1CCN(c2ccccn2)CC1COC1CCC(c2cncnc2)CC1` (stereo partly drawn) [Compound 12] are 33, 1 ×10⁻⁶ cm/s, 0.84 and 35 µL/min/1e6 cells.
With `CS(=O)(=O)N[C@H]1CCN(c2ccccn2)CC1COC1CCC(c2ccnnc2)CC1` (stereo partly drawn) [Compound 13], in data set [1], the efflux ratio at 2 h, 3 μM was 18 and the Papp A→B at 2 h, 3 μM worked out at 0.67 ×10⁻⁶ cm/s. The “Extraction Ratio (ER)” value in data set [2] turned out to be 0.71. Moreover, the hepatocyte CLint at 1 μM in data set [3] came out at 16 µL/min/1e6 cells.
Take `CS(=O)(=O)N[C@H]1CCN(c2ccccn2)CC1COC1CCC(c2cccnn2)CC1` (stereo partly drawn) [Compound 14]: in data set [1], the efflux ratio at 2 h, 3 μM was more than 56 and the Papp A→B at 2 h, 3 μM was less than 0.12 ×10⁻⁶ cm/s. In data set [2], the “Extraction Ratio (ER)” value turned out to be 0.77. Besides, in data set [3], the hepatocyte CLint at 1 μM amounted to 22 µL/min/1e6 cells.
In the same order, the values of `Cc1ccccc1C1CCC(OCC2CN(c3ccccn3)CC[C@@H]2NS(C)(=O)=O)CC1` (stereo partly drawn) [Compound 15] are more than 6.9, less than 0.33 ×10⁻⁶ cm/s, 0.91 and 64 µL/min/1e6 cells.
Regarding `Cc1cccc(C2CCC(OCC3CN(c4ccccn4)CC[C@@H]3NS(C)(=O)=O)CC2)c1` (stereo partly drawn) [Compound 16], in data set [1], the efflux ratio at 2 h, 3 μM is more than 7.9 and the Papp A→B at 2 h, 3 μM was less than 0.9 ×10⁻⁶ cm/s. Further, the “Extraction Ratio (ER)” value in data set [2] is recorded as 0.87. Moreover, in data set [3], the hepatocyte CLint at 1 μM amounted to 43 µL/min/1e6 cells.
The corresponding values for `Cc1cccc(C2CCC(OCC3CN(c4ccccn4)CC[C@@H]3NS(C)(=O)=O)CC2)c1C` (stereo partly drawn) [Compound 17] are more than 6.9, less than 0.28 ×10⁻⁶ cm/s, 0.83 and 32 µL/min/1e6 cells.
In the same order, the values of `Cc1cc(C)cc(C2CCC(OCC3CN(c4ccccn4)CC[C@@H]3NS(C)(=O)=O)CC2)c1` (stereo partly drawn) [Compound 18] are more than 2.6, less than 1.8 ×10⁻⁶ cm/s, 0.84 and 36 µL/min/1e6 cells.
In the same order, the values of `CS(=O)(=O)N[C@H]1CCN(c2ncccn2)CC1COC1CCC(c2ccccc2)CC1` (stereo partly drawn) [Compound 19] are 14, 1.2 ×10⁻⁶ cm/s, 0.93 and 93 µL/min/1e6 cells.
`CS(=O)(=O)N[C@H]1CCN(c2ccncn2)CC1COC1CCC(c2ccccc2)CC1` (stereo partly drawn) [Compound 20]: in data set [1], the efflux ratio at 2 h, 3 μM was determined as 17 and the Papp A→B at 2 h, 3 μM was determined as 1.1 ×10⁻⁶ cm/s. In data set [2], the “Extraction Ratio (ER)” value was found to be 0.90. For the same compound, in data set [3], the hepatocyte CLint at 1 μM came out at 60 µL/min/1e6 cells.
Take `CS(=O)(=O)N[C@H]1CCN(c2cnccn2)CC1COC1CCC(c2ccccc2)CC1` (stereo partly drawn) [Compound 21]: in data set [1], the efflux ratio at 2 h, 3 μM came out at 35 and the Papp A→B at 2 h, 3 μM is 0.69 ×10⁻⁶ cm/s. In data set [2], the “Extraction Ratio (ER)” value is 0.94. Moreover, the hepatocyte CLint at 1 μM in data set [3] is 101 µL/min/1e6 cells.
As to `CS(=O)(=O)N[C@H]1CCN(c2cccnn2)CC1COC1CCC(c2ccccc2)CC1` (stereo partly drawn) [Compound 22], in data set [1], the efflux ratio at 2 h, 3 μM worked out at 23 and the apical-to-basolateral permeability (Papp A→B) at 2 h, 3 μM amounted to 1.3 ×10⁻⁶ cm/s. Further, the “Extraction Ratio (ER)” value in data set [2] was 0.89. Moreover, the hepatocyte CLint at 1 μM in data set [3] is 56 µL/min/1e6 cells.
The corresponding values for `CS(=O)(=O)N[C@H]1CCN(c2cccc(F)n2)CC1COC1CCC(c2ccccc2)CC1` (stereo partly drawn) [Compound 23] are more than 5.4, less than 2 ×10⁻⁶ cm/s, 0.79 and 25 µL/min/1e6 cells.
In the same order, the values of `CS(=O)(=O)N[C@H]1CCN(c2ccc(F)cn2)CC1COC1CCC(c2ccccc2)CC1` (stereo partly drawn) [Compound 24] are 30, 0.28 ×10⁻⁶ cm/s, 0.86 and 42 µL/min/1e6 cells.
The corresponding values for `CS(=O)(=O)N[C@H]1CCN(c2cc(F)ccn2)CC1COC1CCC(c2ccccc2)CC1` (stereo partly drawn) [Compound 25] are more than 58, less than 0.41 ×10⁻⁶ cm/s, 0.92 and 73 µL/min/1e6 cells.
Take `CS(=O)(=O)N[C@H]1CCN(c2ncccc2F)CC1COC1CCC(c2ccccc2)CC1` (stereo partly drawn) [Compound 26]: in data set [1], the efflux ratio at 2 h, 3 μM was 37 and the Papp A→B at 2 h, 3 μM was 0.31 ×10⁻⁶ cm/s. For the same compound, the “Extraction Ratio (ER)” value in data set [2] is 0.89. Further, in data set [3], the hepatocyte CLint at 1 μM came to 55 µL/min/1e6 cells.
Consider `CS(=O)(=O)N[C@H]1CCN(c2ncccc2O)CC1COC1CCC(c2ccccc2)CC1` (stereo partly drawn) [Compound 27], for which, in data set [1], the efflux ratio at 2 h, 3 μM was determined as 3 and the Papp A→B at 2 h, 3 μM turned out to be 2.7 ×10⁻⁶ cm/s. The “Extraction Ratio (ER)” value in data set [2] is reported as 0.92. In addition, in data set [3], the hepatocyte CLint at 1 μM came out at 75 µL/min/1e6 cells.
